Source: patent publication US6136803A, “Antidepressants” (Merrell Pharmaceuticals Inc., priority 1998, dated 2000)
Where two headings read alike, the source gives them in different places.

Tested on: -adrenergic receptors (rat cerebral cortical membranes)
Details: desipramine 5 mg/kg, i.p.; for [3H]-DHA Specifically Bound: six animals per group, mean ± SEM; for % Control ([3H]-DHA specifically bound): vs saline
Protocol: The number of -adrenergic receptors in rat cerebral cortical membranes was measured after a 4 day and 14 day course of one of the following treatments:
a) saline control (intraperitoneal injection - i.p.)
c) fluoxetine (10 mg/kg/day, i.p.) or (10 mg/kg bid, i.p.)
Male Sprague-Dawley rats (175-200 g) were assigned randomly to one of the four treatment groups above and were treated as indicated for either 4 or 14 days. The animals were sacrificed 24 hours after their last treatment and cerebral cortical membranes were isolated. These membranes were assayed for -adrenergic receptor number by the method of Bylund and Snyder [Mol. Pharmacol. 12, 568 (1976)] by measuring the amount of [^3 H]dihydro-alprenolol ([^3 H]-DHA) bound.

Compound: CNCCC(Oc1ccc(C(F)(F)F)cc1)c1ccccc1 (stereo not shown) [Fluoxetine, fluoxetine]
- [3H]-DHA Specifically Bound (A) 14 days, fluoxetine 10 mg/kg, saline control 41.8 ± 1.4, * p<0.05 vs saline, + P<0.05 vs desipramine): 37.9 ± 1.8 fmol/mg protein
- % Control ([3H]-DHA specifically bound) (A) 14 days, fluoxetine 10 mg/kg): 91 % Control
- [3H]-DHA Specifically Bound (B) 4 days, fluoxetine 10 mg/kg bid, saline control 54.6 ± 3.1, * p<0.05 vs saline): 51.8 ± 1.7 fmol/mg protein
- % Control ([3H]-DHA specifically bound) (B) 4 days, fluoxetine 10 mg/kg bid): 95 % Control
